In ChEMBL document CHEMBL2073983, “Characterization of the mouse bile salt export pump overexpressed in the baculovirus system” (Hepatology, 2001):

What was measured:
Type in all cases: functional, cell membranes, Membrane vesicle
[1] = target: T1, Bile salt export pump (Bsep) (Mus musculus, UniProt Q9QY30); assay: TP_TRANSPORTER: inhibition of Taurochenodeoxycholate-stimulated ATPase activity (Glibenclamide: 60 uM) in membrane vesicles from Bsep-expressing Sf9 cells; set-up: scale not given: the % may be the effect or the level left; settings: probe Taurochenodeoxycholate, read-out: Activity
T1 sequence (Q9QY30 whole entry): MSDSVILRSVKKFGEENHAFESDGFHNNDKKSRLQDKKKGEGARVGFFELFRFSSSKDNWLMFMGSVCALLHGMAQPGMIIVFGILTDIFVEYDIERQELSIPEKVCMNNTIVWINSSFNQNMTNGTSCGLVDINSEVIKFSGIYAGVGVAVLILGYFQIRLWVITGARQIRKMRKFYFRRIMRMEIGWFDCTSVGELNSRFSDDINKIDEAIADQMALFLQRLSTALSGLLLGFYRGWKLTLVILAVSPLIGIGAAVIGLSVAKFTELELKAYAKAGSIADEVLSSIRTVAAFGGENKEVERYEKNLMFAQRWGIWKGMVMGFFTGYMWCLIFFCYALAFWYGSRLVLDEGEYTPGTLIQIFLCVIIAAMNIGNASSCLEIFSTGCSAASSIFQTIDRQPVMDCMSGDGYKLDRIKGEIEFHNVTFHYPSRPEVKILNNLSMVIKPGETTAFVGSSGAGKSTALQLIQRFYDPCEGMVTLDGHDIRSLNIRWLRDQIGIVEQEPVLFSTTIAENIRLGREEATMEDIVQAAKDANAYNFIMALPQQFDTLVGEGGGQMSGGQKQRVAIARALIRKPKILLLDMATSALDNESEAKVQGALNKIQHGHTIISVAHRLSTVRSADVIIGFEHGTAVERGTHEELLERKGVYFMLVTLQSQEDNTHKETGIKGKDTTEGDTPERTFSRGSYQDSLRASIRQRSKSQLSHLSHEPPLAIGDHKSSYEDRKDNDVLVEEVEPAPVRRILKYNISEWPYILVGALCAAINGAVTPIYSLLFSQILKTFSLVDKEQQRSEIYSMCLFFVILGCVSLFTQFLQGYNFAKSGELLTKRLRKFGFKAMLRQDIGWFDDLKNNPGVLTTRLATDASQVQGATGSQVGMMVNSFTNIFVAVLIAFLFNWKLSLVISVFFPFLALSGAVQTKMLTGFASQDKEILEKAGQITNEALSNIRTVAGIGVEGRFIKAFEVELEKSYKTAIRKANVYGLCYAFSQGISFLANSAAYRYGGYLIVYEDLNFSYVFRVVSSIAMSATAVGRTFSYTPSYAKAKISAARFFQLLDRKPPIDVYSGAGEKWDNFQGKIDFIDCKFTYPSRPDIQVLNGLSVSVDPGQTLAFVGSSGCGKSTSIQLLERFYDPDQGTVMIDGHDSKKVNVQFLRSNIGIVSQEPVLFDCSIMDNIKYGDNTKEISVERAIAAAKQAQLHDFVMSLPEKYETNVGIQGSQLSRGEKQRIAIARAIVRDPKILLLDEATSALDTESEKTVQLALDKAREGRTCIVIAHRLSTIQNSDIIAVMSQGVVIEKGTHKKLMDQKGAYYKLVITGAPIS

[2] = target: T1, Bile salt export pump (Bsep); assay: TP_TRANSPORTER: inhibition of Taurochenodeoxycholate-stimulated ATPase activity (Rifamycin SV: 100 uM) in membrane vesicles from Bsep-expressing Sf9 cells; set-up: scale not given: the % may be the effect or the level left; settings: probe Taurochenodeoxycholate, read-out: Activity
[3] = substrate: C[C@H](CCC(=O)NCCS(=O)(=O)O)[C@H]1CC[C@H]2[C@@H]3[C@H](O)C[C@@H]4C[C@H](O)CC[C@]4(C)[C@H]3CC[C@]12C; assay: TP_TRANSPORTER: uptake in membrane vesicles isolated from Bsep-expressing Sf9 cells
[4] = substrate: C[C@H](CCC(=O)NCC(=O)O)[C@H]1CC[C@H]2[C@@H]3[C@H](O)C[C@@H]4C[C@H](O)CC[C@]4(C)[C@H]3C[C@H](O)[C@]12C; assay: TP_TRANSPORTER: uptake in membrane vesicles from Bsep-expressing Sf9 cells

`COc1ccc(Cl)cc1C(=O)NCCc1ccc(S(=O)(=O)NC(=O)NC2CCCCC2)cc1` [GLYBURIDE] showed an activity at 60 µM [1] of 47.2%.

With `CO[C@H]1/C=C/O[C@@]2(C)Oc3c(C)c(O)c4c(O)c(cc(O)c4c3C2=O)NC(=O)/C(C)=C\C=C\[C@H](C)[C@H](O)[C@@H](C)[C@@H](O)[C@@H](C)[C@H](OC(C)=O)[C@@H]1C` [RIFAMYCIN] the activity at 100 µM [2] was 29.8%.

B1: Bile salt export pump (Mus musculus) (protein)
chain: MSDSVILRSVKKFGEENHAFESDGFHNNDKKSRLQDKKKGEGARVGFFELFRFSSSKDNWLMFMGSVCALLHGMAQPGMIIVFGILTDIFVEYDIERQELSIPEKVCMNNTIVWINSSFNQNMTNGTSCGLVDINSEVIKFSGIYAGVGVAVLILGYFQIRLWVITGARQIRKMRKFYFRRIMRMEIGWFDCTSVGELNSRFSDDINKIDEAIADQMALFLQRLSTALSGLLLGFYRGWKLTLVILAVSPLIGIGAAVIGLSVAKFTELELKAYAKAGSIADEVLSSIRTVAAFGGENKEVERYEKNLMFAQRWGIWKGMVMGFFTGYMWCLIFFCYALAFWYGSRLVLDEGEYTPGTLIQIFLCVIIAAMNIGNASSCLEIFSTGCSAASSIFQTIDRQPVMDCMSGDGYKLDRIKGEIEFHNVTFHYPSRPEVKILNNLSMVIKPGETTAFVGSSGAGKSTALQLIQRFYDPCEGMVTLDGHDIRSLNIRWLRDQIGIVEQEPVLFSTTIAENIRLGREEATMEDIVQAAKDANAYNFIMALPQQFDTLVGEGGGQMSGGQKQRVAIARALIRKPKILLLDMATSALDNESEAKVQGALNKIQHGHTIISVAHRLSTVRSADVIIGFEHGTAVERGTHEELLERKGVYFMLVTLQSQEDNTHKETGIKGKDTTEGDTPERTFSRGSYQDSLRASIRQRSKSQLSHLSHEPPLAIGDHKSSYEDRKDNDVLVEEVEPAPVRRILKYNISEWPYILVGALCAAINGAVTPIYSLLFSQILKTFSLVDKEQQRSEIYSMCLFFVILGCVSLFTQFLQGYNFAKSGELLTKRLRKFGFKAMLRQDIGWFDDLKNNPGVLTTRLATDASQVQGATGSQVGMMVNSFTNIFVAVLIAFLFNWKLSLVISVFFPFLALSGAVQTKMLTGFASQDKEILEKAGQITNEALSNIRTVAGIGVEGRFIKAFEVELEKSYKTAIRKANVYGLCYAFSQGISFLANSAAYRYGGYLIVYEDLNFSYVFRVVSSIAMSATAVGRTFSYTPSYAKAKISAARFFQLLDRKPPIDVYSGAGEKWDNFQGKIDFIDCKFTYPSRPDIQVLNGLSVSVDPGQTLAFVGSSGCGKSTSIQLLERFYDPDQGTVMIDGHDSKKVNVQFLRSNIGIVSQEPVLFDCSIMDNIKYGDNTKEISVERAIAAAKQAQLHDFVMSLPEKYETNVGIQGSQLSRGEKQRIAIARAIVRDPKILLLDEATSALDTESEKTVQLALDKAREGRTCIVIAHRLSTIQNSDIIAVMSQGVVIEKGTHKKLMDQKGAYYKLVITGAPIS
B1 was tested, and the Km [3] was 5.7 µM and the Km [4] was 19.5 µM.
